Data from patent US20250302043A1, “BIOCIDE FORMULATIONS FOR THE PRESERVATION OF ANALYTE DETECTION SENSOR(S) AND METHOD(S) OF USE AND THEREOF” (Siemens Healthcare Diagnostics Inc., priority 2019, published 2025).

What was measured:
[1] = system: creatinase enzyme of creatinine detection sensors; assay: Inactivation of the enzyme of creatinine detection sensors after exposure to biocide; type: biochemical; conditions: individual biocide; creatinine detection sensor; 'in as little as'
Excerpt: Biocides are often used to preserve the at least one analyte detection sensor(s) of a sensor array present in a blood gas, electrolyte, and/or metabolite instrument. However, when such analyte detection sensor(s) is a creatinine detection sensor(s), these biocides inactivate some or all of the enzymes present on and/or in the creatinine sensor(s). In the context of creatinine sensors, such sensors rely on enzymes containing free sulfhydryl groups (—SH) for the proper and continuous functioning of the sensors. Such free sulfhydryl groups chemically react with certain species of biocide(s) (such as, Cl-MlT) that result in the inactivation of the creatinine sensor's(s′) enzymes, thereby resulting in decreased (or total loss) of functional utility and/or functional life of the creatinine sensor(s). Such inactivation can occur very rapidly. […]
(§1) Referring now to FIG. 4A, shown therein is a graphical plot showing the concentrations (measured in CFU per milliliter) of various contaminants (y-axis), such as, by way of example only, bacteria (including S. aureus, E. coli, P. aeruginosa, and C. maltaromaticum) and fungi (including, C. albicans, A. niger, and Penicillium sp.) over a period of six weeks (x-axis) on plates treated with a concentration of about 5 ppm of the individual aqueous biocide Cl-MlT in accordance with the presently disclosed and/or claimed inventive concept(s).

[2] = system: bacteria (including S. aureus, E. coli, P. aeruginosa, and C. maltaromaticum) and fungi (including, C. albicans, A. niger, and Penicillium sp.); assay: Biocide efficacy: concentrations (CFU per milliliter) of contaminants over time on plates treated with biocide; type: cell-based; conditions: for decrease or elimination of the bacteria and/or fungi contaminants: plates
Excerpt: FIG. 3 is a graphical plot showing the concentrations (measured in CFU per milliliter) of various contaminants (y-axis), such as, by way of example only, bacteria and fungi, over a period of time in weeks (x-axis) on plates treated with a concentration of about 20 ppm hexahydro 1,3,5-tris(2-hydroxy ethyl)-S-triazine (“Onyxide200”) biocide in accordance with the presently disclosed and/or claimed inventive concept(s).
FIG. 4A is a graphical plot showing the concentrations (measured in CFU per milliliter) of various contaminants (y-axis), such as, by way of example only, bacteria and fungi, over a period of time in weeks (x-axis) on plates treated with a concentration of about 5 ppm of 5-chloro-2-methylisothiazol-3(2H)-one (“Cl-MlT”) biocide in accordance with the presently disclosed and/or claimed inventive concept(s).
FIG. 5A is a graphical plot showing the concentrations (measured in CFU per milliliter) of various contaminants (y-axis), such as, by way of example only, bacteria and fungi, over a period of time in weeks (x-axis) on plates treated with a combination of concentrations of about 20 ppm of Onyxide200 biocide and about 4 ppm of Cl-MlT biocide in accordance with the presently disclosed and/or claimed inventive concept(s).
as §1, with “3,” for “4A,”, “five” for “six”, “20” for “5”, “Onyxide200” for “Cl-MlT”, “concept(s). […]” for “concept(s).”
Referring now to FIG. 5A, shown therein is a graphical plot showing the concentrations (measured in CFU per milliliter) of various contaminants (y-axis), such as, by way of example only, bacteria (including S. aureus, E. coli, P. aeruginosa, and C. maltaromaticum) and fungi (including, C. albicans, A. niger, and Penicillium sp.) over a period of six weeks (x-axis) on plates treated with a combined aqueous biocide formulation comprising concentrations of about 20 ppm of Onyxide200 biocide and about 4 ppm of Cl-MlT biocide in accordance with the presently disclosed and/or claimed inventive concept(s). […] This is synergistic effect allows for a significant increase in the formulation's efficacy for contaminant removal over the individual component biocides (Onyxide200 and Cl-MlT) which comprise the formulation.

SMILES	time after exposure at which inactivation of the enzyme occurs [1]	week of plating at which decrease and/or elimination was obtained for some contaminants ([2]; about 1 ppm individual aqueous biocide, FIG. 4B)	decrease or elimination of the bacteria and/or fungi contaminants ([2]; about 1 ppm individual aqueous biocide, six weeks, FIG. 4B)	week after plating at which decrease and/or elimination was obtained for some contaminants ([2]; about 5 ppm individual aqueous biocide, FIG. 4A)	decrease or elimination of the bacteria and/or fungi contaminants ([2]; about 5 ppm individual aqueous biocide, six weeks, FIG. 4A)	decrease or elimination of the bacteria and/or fungi contaminants ([2]; about 20 ppm individual aqueous biocide, five weeks, FIG. 3)
Cn1sc(Cl)cc1=O [Cl-MlT, 5-chloro-2-methylisothiazol-3(2H)-one]	1 to 4 days	> 6 week	eventually resulted in a decrease or elimination of only some of the bacteria and/or fungi contaminants	5 week	eventually resulted in a decrease or elimination of the bacteria and/or fungi contaminants	
OCCN1CN(CCO)CN(CCO)C1 [Onyxide200, hexahydro 1,3,5-tris(2-hydroxyethyl)-S-triazine]						did not result in a substantial decrease or elimination of the bacteria and/or fungi contaminants
